Reference: EP0311193B1, “Antifungal fermentation product” (priority 1987, dated 1989)
Numbered stars: 1 amine (or outer) side, 2 acyl side, 3 side chain; on linkers, the order of the positions; unused ones are H or OH. Bridge positions count the residues as written; N and C are the ends. Square brackets hold non-standard residues; d marks the D form. Peptide text beside a SMILES is read from it. * marks the point of attachment. Orn(4R-OH,5R-OH) = O=C([C@H](C[C@@H](O)[C@@H](O)N[*:3])N[*:1])[*:2]; hTyr(3S-OH,4S-OH) = N[C@H](C(=O)O)[C@H](O)[C@@H](O)c1ccc(O)cc1; Pro(3S-OH,4S-Me) = C[C@H]1CN[C@H](C(=O)O)[C@H]1O; Gln(3R-OH) = NC(=O)C[C@@H](O)[C@H](N)C(=O)O; Hyp = O=C(O)[C@@H]1C[C@@H](O)CN1; X1 = CCC(C)CC(C)CCCCCCCCC(=O)*

Assays:
filamentous fungi = assay: disc diffusion antifungal assay, filamentous fungi; format: cell-based; details: disc diffusion against the listed filamentous fungi; 28°C or 37°C, 24 hours
Description: (§1) This may be seen in an antifungal assay employing a disc diffusion method against yeasts and filamentous fungi (molds).
(§2) In the disc diffusion method, seeded assay plates are first prepared in one of the following manners according to the type of organism.
Inocula for filamentous fungi are prepared by scraping the surface of stock plates maintained on potato dextrose agar with a moistened sterile dacron swab. The spores and mycelia are then suspended in 10 milliliters of sterile potato dextrose broth and adjusted to 70 percent transmission at 660 nm.
(§3) For three strains of Candida albicans and one strain of Saccharomyces cerevisiae, sterile saline is employed in place of potato dextrose broth. Assay plates are prepared by dilution the inoculum into appropriate molten agar medium, cooled to 45°C to obtain a final concentration of 4 percent (volume/volume).
(§4) The seeded agar media thus prepared are dispensed into petri dishes for assays (11 milliliters per dish).
(§5) The samples to be tested for production of antifungal agent are applied to 6.2 mm. filter paper discs (25 microliter/disc) and air dried at 24°C. When the sample to be tested is a crude broth, it may be centrifuged prior to application. […] Following incubation, the inhibition zones are measured and recorded. […]

Candida albicans [1] = assay: agar dilution assay (MIC), expanded panel of strains; format: cell-based; details: against 5 of 34 different strains of Candida albicans, 28°C, 48 hours
Description: The activity may be seen in an agar dilution assay employing a yeast nitrogen base dextrose agar medium. In carrying out the assay, Compound I was solubilized in 10 percent dimethyl sulfoxide (DMSO) supplemented with one drop of Tween 20. Twofold dilutions were made with sterile distilled water/10 percent DMSO to obtain final drug concentrations in the agar dilution assay plates ranging from 128 to 0.06 µg/ml.
The yeast cultures, maintained in yeast maltose (YM) broth, were transferred to fresh YM medium and incubated overnight at 35°C with shaking (250 rpm). After incubation, each culture was diluted in sterile saline to yield a final concentration of 3x10⁵ to 3x10⁶ colony forming units (CFU)/ml.
Each prepared plate was inoculated using a Denley Multipoint Inoculator (Denley, Sussex, England) which delivers approximately 0.001 milliliter to the agar surface resulting in inoculation of from 3x10² to 3x10³ CFUs. The plates were incubated at 28°C for 48 hours. The minimum inhibitory concentrations (MICs) were recorded as the lowest concentrations of drug showing no growth or less than three CFU/spot.
In a similar assay, Compound I was tested against an expanded panel of 34 different strains of Candida albicans and 13 different strains of Candida parapsilosis.

yeasts = assay: disc diffusion antifungal assay, yeasts; format: cell-based; details: disc diffusion against the listed yeasts; 28°C or 37°C, 24 hours
Description: as §1, §2
Inocula for yeasts are prepared from overnight broth cultures then diluted into potato dextrose […] to a final concentration of either 40 percent or 70 percent transmission at 660 nm.
as §3, §4
as §5, with “application. The discs bearing the material to be tested are then applied employing sterile conditions to the seeded assay plates and the samples rewet with 25 percent sterile aqueous dimethylsulfoxide (25 µl/disc).” for “application.”

Candida albicans [2] = assay: mice experimentally infected with Candida albicans; format: in vivo
Source text: These properties point to a new antifungal drug with great potential in the therapy of human mycotic infections.

red blood cell = assay: titration/hemolysis assay (red blood cell lysis); details: highest drug concentration that did not lyse the red blood cells; 25°C, two hours; range tested 0.39 to 400 µg/ml in 5 percent dextrose
Description: Concentration of drug in the range of from 0.39 to 400 µg/ml in 5 percent dextrose and a drug free control were employed.
In carrying out the determination, the assay tubes prepared by mixing together 2 milliliters of appropriate drug dilution and 0.5 milliliter of red blood cell suspension were gently shaken to mix the contents and then the tubes were incubated at 25°C for two hours. At the end of this time, the tubes were examined visually for complete or partial red blood cell hemolysis and compared to a drug free control.

Row | Structure (SMILES) | antifungal properties (inhibition zones) (filamentous fungi) | MIC (Candida albicans [1]) [µg/mL] | antifungal properties (inhibition zones) (yeasts) | eradication of Candida albicans from kidneys (Candida albicans [2]; kidneys of experimentally infected mice) | survival of mice infected with Candida albicans (Candida albicans [2]; mice infected with Candida albicans) | minimum lytic concentration (MLC) (red blood cell) [µg/mL]
1 | CCC(C)CC(C)CCCCCCCCC(=O)N[C@H]1C[C@@H](O)[C@@H](O)NC(=O)[C@@H]2[C@@H](O)[C@@H](C)CN2C(=O)[C@H]([C@H](O)CC(N)=O)NC(=O)[C@H]([C@H](O)[C@@H](O)c2ccc(O)cc2)NC(=O)[C@@H]2C[C@@H](O)CN2C(=O)[C@H]([C@@H](C)O)NC1=O (stereo partly drawn) [Compound I, 1-[(4R, 5R) 4,5-dihydroxy N²-(10,12-dimethyl-1-oxotetradecyl)-L-ornithine]-5-(threo-3-hydroxy-L-glutamine)echinocandin B] (X1-[Orn(4R-OH,5R-OH)]T[Hyp][hTyr(3S-OH,4S-OH)][Gln(3R-OH)][Pro(3S-OH,4S-Me)]; lactam 1-C) | good antifungal properties | > 1 | good antifungal properties | eradicate Candida albicans from kidneys | significantly prolong the survival | –
2 | C[C@@H]1[C@H](O)[C@@H](C)/C=C/C=C/C=C/C=C/C=C/C=C/C=C/[C@H](O[C@@H]2O[C@H](C)[C@@H](O)[C@H](N)[C@@H]2O)C[C@@H]2O[C@](O)(C[C@@H](O)C[C@@H](O)[C@H](O)CC[C@@H](O)C[C@@H](O)CC(=O)O[C@H]1C)C[C@H](O)[C@H]2C(=O)O [amphotericin B] | – | – | – | – | – | 12.5
